Test results from paper PMC3661587, “Estrone-3-Sulphate, a Potential Novel Ligand for Targeting Breast Cancers” (PLoS ONE, 2013).
Read-outs that look alike come from different tables or passages of the source.

Settings: mouse, in vivo
Description: Solid phase extraction (SPE) and HPLC analysis of plasma were performed as previously described with minor modifications, [23]. SPE was performed using Sep-Pak C18 columns (Waters, Mississauga, ON). The column was activated using methanol, followed by water. 100 µL of plasma was then loaded on to the activated column. This was followed by successive washing steps with water and hexane. The analyte was eluted from the column using methanol and then dried under a stream of N2. The sample was reconstituted in DMSO:Methanol 1∶1 v/v prior to HPLC analysis. […] The radioactivity in each eluate was determined by liquid scintillation counting. […] The methanol eluates were used for HPLC analysis.
Separation was performed using a Waters C18 reversed-phase HPLC column (XTerra RP-C18, 5 µm, 4.6×250 mm I.D.) Analytes were eluted using an isocratic-gradient of 20 mM ammonium sulphate buffer (solvent A) and methanol (solvent B). The mobile phase consisted of solvent A/solvent B; 60/40% for 0–5 min, followed by a linear gradient of 60/40% to 25/75% for 5–45 and 25/75% for 45–50 min at a flow rate of 1.0 mL/min and UV detection at 280 nm. The HPLC eluate from the UV detector was collected every minute for over 50 min in eppendorf tubes and radioactivity in each sample was determined.

| % of total radioactivity in plasma (2 h) [%] | % of total radioactivity in plasma (6 h) [%] | % of total radioactivity in plasma (48 h) [%] | Compound |
| --- | --- | --- | --- |
| 1.02±0.24 | 1.7±0.8 | – | C[C@]12CC[C@@H]3c4ccc(O)cc4CC[C@H]3[C@@H]1CCC2=O [Estrone, estrone] |
| 2.2±1.23 | 3.2±0.2 | 3.2±0.45 | C[C@]12CC[C@@H]3c4ccc(O)cc4CC[C@H]3[C@@H]1CC[C@@H]2O [Estradiol, estradiol] |
